Assay results published in PMC12394552, “Multi-biological activity evaluation of Sn(П), Zn(П) and Fe(П) complexes based on thiocarbohydrazide schiff bases: synthesis, spectroscopic investigations and fluorescence studies” (Scientific Reports, 2025).
Values after ≈ are worked out from the molar mass of the structure shown. Where two headings read alike, the source gives them in different places.

Assays:
RAW 264.7 macrophages = assay: SRB cytotoxicity on RAW 264.7 viability; assay type: cell-based; details: Mus musculus, RAW264.7, read-out: RAW 264.7 viability IC50 value
Protocol: (§1) All malignancy cell lines were cultured in high glucose DMEM (Bio Whittaker, Verviers, Belgium) containing 10% FBS, 4-(2-hydroxyethyl)-1-piperazineethanesulfonic acid (HEPES) Buffer (10 mM), L-glutamine (2 mM), gentamicin (50 µg/mL), penicillin (100 U/mL), and streptomycin sulfate ([…]) from Sigma (St. Luis, MO, USA) whereas Sulforhodamine B was from Santa Cruz Biotechnology (Inc. Texas, USA). Surviving cancer cell lines provide numerous advantages; they provide a pure and continuous supply of cells, thus overcoming any ethical barriers concerning human tissue usage, and are cost-effective. For cytotoxicity screening, adherent monolayers of all procured malignancies’ cell lines were examined. Periodontal ligament fibroblasts (PDL) were used to determine selective cytotoxicity.
RAW 264.7 mouse macrophage cell line (ATCC® TIB-71) were cultured in high glucose DMEM supplemented with 10% (FBS), penicillin (100 U/mL), streptomycin (100 µg/mL), and L-glutamate (100 µg/mL) in a 37 °C humidified atmosphere with 95% air and 5% CO2. Confluent macrophages (2 × 10^5/well) were incubated with inflammation-priming lipopolysaccharide (LPS; Sigma, St. Luis, MO, USA) with either indomethacin as the reference agent[39] or treatment compounds at different concentrations (1.563-200 µM). Griess reagent was mixed with aliquots of cell culture media and incubated at R.T. for 10 min. Absorbance at 550 nm was determined using a microplate reader (Spectro Scan 80D UV-VIS spectrophotometer (Sedico Ltd., Nicosia, Cyprus). The nitrite concentration was determined by comparison with a sodium nitrite standard curve. SRB cytotoxicity protocol was performed for evaluation of the effect of the studied test compounds on RAW 264.7 viability.

[1] = test system: Escherichia coli ATCC 8739; assay: MIC determination, broth microdilution (EUCAST adapted); assay type: cell-based; details: ATCC8739, read-out: E. coli MIC value
Protocol: (§2) The compounds were tested against Gram-positive bacteria (Staphylococcus aureus ATCC 6538), Gram-negative bacteria (Escherichia coli ATCC 8739) and yeast (Candida albicansATCC10231). […] For bacterial strains, the EUCAST (2025) method was adapted. A few colonies of each bacterial culture previously grown on Mueller-Hinton agar for 24–48 h were suspended in normal saline and adjusted to 0.5 McFarland (1.5 × 10^8 CFU/mL). A 1/10 dilution was prepared in Mueller-Hinton broth (MHB) for the inoculation. In the wells of a 96-well flat-bottom microtiter plate, double serial dilutions of each compound were prepared in MHB. Each well was inoculated with the bacteria to achieve ca. 5 × 10^5 CFU/mL, and the plates were incubated at 37 °C overnight. Positive control (bacteria in culture medium only) and negative control (culture medium) were prepared. Each compound was tested in duplicate. After incubation, the plates were inspected visually for growth inhibition. To test the antimicrobial activity of DMSO, double serial dilutions of DMSO in broth medium were prepared and processed as the samples, but without the addition of the compounds. The antibacterial drug ciprofloxacin was used as a reference for comparison.
(§3) For Candida albicans, the same procedure applied to bacteria was used, except after inoculation, the plates were incubated at 35 °C for 24 h, and after incubation, the absorbance was measured at 530 nm using a plate reader. […] The absorbance of the wells was corrected by subtracting the absorbance of the blank. […] The antifungal drug fluconazole was used as a reference for comparison.

[2] = test system: Staphylococcus aureus ATCC 6538; assay: as above; assay type: cell-based; details: ATCC6538, read-out: S. aureus MIC value
Protocol: as §2, §3

[3] = test system: Candida albicans ATCC10231; assay: MIC determination, broth microdilution, absorbance 530 nm; assay type: cell-based; details: ATCC10231, 24 h, read-out: C. albicans MIC value at 50% inhibition
Protocol: as §2, §3

[4] = test system: Periodontal ligament fibroblasts (PDL); assay: SRB selective cytotoxicity in normal fibroblasts; assay type: cell-based; details: Fibroblast
Protocol: as §1

A375 skin melanoma = assay: SRB antiproliferative assay; assay type: cell-based; details: Homo sapiens, A-375, 72 h; read-out: Cytotoxicity (as of %Control) IC50 value, A375 skin melanoma
Protocol: as §1

[5] = test system: CACO2 colorectal cancer cell line; assay: SRB antiproliferative assay; assay type: cell-based
Protocol: as §1

[6] = test system: HCT116 colorectal cancer cell line; assay: SRB antiproliferative assay; assay type: cell-based
Protocol: as §1

[7] = test system: HT29 colorectal cancer cell line; assay: SRB antiproliferative assay; assay type: cell-based
Protocol: as §1

[8] = test system: SW620 colorectal cancer cell line; assay: SRB antiproliferative assay; assay type: cell-based
Protocol: as §1

U87 glioblastoma = assay: SRB antiproliferative assay; assay type: cell-based; details: Homo sapiens, 72 h, read-out: Cytotoxicity (as of %Control) IC50 value, U87 Gliobalstoma
Protocol: as §1

A549 lung malignancy = assay: SRB antiproliferative assay; assay type: cell-based, human; details: Homo sapiens, A549, 72 h; read-out: Cytotoxicity (as of %Control) IC50 value, A549 lung malignancy
Protocol: as §1

[9] = test system: BT-549 invasive mammary malignancy; assay: SRB antiproliferative assay; assay type: cell-based, human; details: Homo sapiens, BT-549, 72 h; read-out: Cytotoxicity (as of %control) IC50 value, BT-549 invasive mammary malignancy
Protocol: as §1

Hela cervix malignancy = assay: SRB antiproliferative assay; assay type: cell-based, human
Protocol: as §1

MCF7 mammary malignancy = assay: SRB antiproliferative assay; assay type: cell-based, human
Protocol: as §1

[10] = test system: MDA-MB-231 invasive mammary malignancy; assay: SRB antiproliferative assay; assay type: cell-based, human; details: Homo sapiens, MDA-MB-231, 72 h, read-out: Cytotoxicity (as of %control) IC50 value, MDA-MB-231 invasive mammary malignancy
Protocol: as §1

[11] = test system: MDA-MB-453 invasive mammary malignancy; assay: SRB antiproliferative assay; assay type: cell-based, human
Protocol: as §1

[12] = test system: PANC1 pancreatic cell line; assay: SRB antiproliferative assay; assay type: cell-based, human
Protocol: as §1

PC3 prostate malignancy = assay: SRB antiproliferative assay; assay type: cell-based, human
Protocol: as §1

[13] = test system: SW480 colorectal cancer cell line; assay: SRB antiproliferative assay; assay type: cell-based, human; details: Homo sapiens, SW480, 72 h; read-out: Cytotoxicity (as of %control) IC50 value, SW480
Protocol: as §1

T47D mammary malignancy = assay: SRB antiproliferative assay; assay type: cell-based, human; details: Homo sapiens, T47D, 72 h; read-out: Cytotoxicity (as of %control) IC50 value, T47D mammary malignancy
Protocol: as §1

[14] = DPPH free radical scavenger assay; details: values given in µM; 1 h incubation, 517 nm; test range 6.25–200 µM; mean ± SD n = 4
Text: This method depends on the reduction of the radicals, resulting in a color change from oxidized purple to reduced yellow. Principally, Diphenyl-2-picryl-hydrazyl (DPPH) undergoes reduction in methanol (MeOH) solution, in the presence of a hydrogen-donating compound, due to the formation of the non-radical form DPPH-H. This color change can be quantitatively measured using a 515–520 nm spectrophotometer. In contrast to other radical scavenging assays, a DPPH radical is stable and can provide reproducible spectroscopic values[41],[42]. A DPPH solution (0.2 mM) was diluted with MeOH and then mixed with treatment compounds as well as ascorbic acid in a concentration ratio of 1:1 using a 96-well plate (so that a final concentration range 6.25–200 µM was obtained for test agents); the treated solution was incubated one hour isolated from light. Finally, a change in absorbance at 517 nm wavelength was measured using a microplate reader (Bio-Tek Instrument, USA). Ascorbic acid was the robust and classical standard radical scavenging reference agent for comparison purposes[43],[44]. The calculation of the DPPH radical scavenging activity inhibition was determined by the following equation, where A represents photometric absorbance: in % = (A control – A sample) / A control x 100%)[45].

## COc1ccc2c(c1)c(CC(=O)O)c(C)n2C(=O)c1ccc(Cl)cc1 [Indomethacin, reference compound]
RAW 264.7 macrophages
  IC50: > 200 µM

## COc1ccccc1/C=N/NC(=S)N/N=C/c1ccccc1OC [L1, 1,5-bis(2-methoxyanisaldehyde) thiocarbohydrazine]
[1]
  MIC: 31.3 µg/mL (≈ 91.4 µM)
[2]
  MIC: 15.6 µg/mL (≈ 45.6 µM)
[3]
  MIC: 31.3 µg/mL (≈ 91.4 µM)
RAW 264.7 macrophages
  IC50: > 200 µM
[4]
  IC50: > 200 µM
A375 skin melanoma
  IC50: 41.7 ± 0.7 µM
[5]; Homo sapiens, Caco-2, 72 h; read-out: Cytotoxicity (as of %control) IC50 value, CACO2
  IC50: 23.2 ± 0.6 µM
[6]; Homo sapiens, HCT-116, 72 h; read-out: Cytotoxicity (as of %control) IC50 value, HCT116
  IC50: 36.1 ± 1.9 µM
[7]; Homo sapiens, HT-29, 72 h; read-out: Cytotoxicity (as of %control) IC50 value, HT29
  IC50: 42.1 ± 5.7 µM
[8]; Homo sapiens, SW-620, 72 h, read-out: Cytotoxicity (as of %control) IC50 value, SW620
  IC50: < 3.12 µM
U87 glioblastoma
  IC50: 29.5 ± 0.2 µM
A549 lung malignancy
  IC50: 44.8 ± 1.8 µM
[9]
  IC50: 46.4 ± 1.11 µM
Hela cervix malignancy; Homo sapiens, HeLa, 72 h; read-out: Cytotoxicity (as of %Control) IC50 value, Hela cervix malignancy
  IC50: 44.8 ± 3.8 µM
MCF7 mammary malignancy; Homo sapiens, MCF7, 72 h; read-out: Cytotoxicity (as of %control) IC50 value, MCF7 mammary malignancy
  IC50: 52.4 ± 5.25 µM
[10]
  IC50: 29.2 ± 3.8 µM
[11]; Homo sapiens, MDA-MB-453, 72 h; read-out: Cytotoxicity (as of %control) IC50 value, MDA-MB-453 invasive mammary malignancy
  IC50: 72.9 ± 3.4 µM
[12]; Homo sapiens, PANC-1, 72 h; read-out: Cytotoxicity (as of %control) IC50 value, PANC1
  IC50: 66.8 ± 0.2 µM
PC3 prostate malignancy; Homo sapiens, 72 h; read-out: Cytotoxicity (as of %Control) IC50 value, PC3 prostate malignancy
  IC50: 145 ± 1.5 µM
[13]
  IC50: 5.35 ± 0.25 µM
T47D mammary malignancy
  IC50: 21.8 ± 1.2 µM

## COc1ccc(/C=N/NC(=S)N/N=C/c2ccc(OC)cc2)cc1 [L2, 1,5-bis (4-methoxyanisaldehyde) thiocarbohydrazine]
[1]
  MIC: 31.3 µg/mL (≈ 91.4 µM)
[2]
  MIC: 15.6 µg/mL (≈ 45.6 µM)
[3]
  MIC: 31.3 µg/mL (≈ 91.4 µM)
[14]
  IC50: 18.1 ± 2.04 µM
RAW 264.7 macrophages
  IC50: > 200 µM
[4]
  IC50: > 200 µM
A375 skin melanoma
  IC50: > 200 µM
[5]; Homo sapiens, Caco-2, 72 h, read-out: Cytotoxicity (as of %control) IC50 value, CACO2
  IC50: > 200 µM
[6]; Homo sapiens, HCT-116, 72 h, read-out: Cytotoxicity (as of %control) IC50 value, HCT116
  IC50: > 200 µM
[7]; Homo sapiens, HT-29, 72 h, read-out: Cytotoxicity (as of %control) IC50 value, HT29
  IC50: > 200 µM
[8]; Homo sapiens, SW-620, 72 h; read-out: Cytotoxicity (as of %control) IC50 value, SW620
  IC50: 117 ± 3.81 µM
U87 glioblastoma
  IC50: > 200 µM
A549 lung malignancy
  IC50: 36.6 ± 0.2 µM
[9]
  IC50: 94.8 ± 4.17 µM
Hela cervix malignancy; Homo sapiens, HeLa, 72 h, read-out: Cytotoxicity (as of %Control) IC50 value, Hela cervix malignancy
  IC50: > 200 µM
MCF7 mammary malignancy; Homo sapiens, MCF7, 72 h, read-out: Cytotoxicity (as of %control) IC50 value, MCF7 mammary malignancy
  IC50: > 200 µM
[10]
  IC50: > 200 µM
[11]; Homo sapiens, MDA-MB-453, 72 h, read-out: Cytotoxicity (as of %control) IC50 value, MDA-MB-453 invasive mammary malignancy
  IC50: > 200 µM
[12]; Homo sapiens, PANC-1, 72 h, read-out: Cytotoxicity (as of %control) IC50 value, PANC1
  IC50: > 200 µM
PC3 prostate malignancy; Homo sapiens, 72 h, read-out: Cytotoxicity (as of %Control) IC50 value, PC3 prostate malignancy
  IC50: > 200 µM
[13]
  IC50: 51.6 ± 3.07 µM
T47D mammary malignancy
  IC50: > 200 µM
